Assay results from patent publication US20230158157A1, “POTENT AND SELECTIVE DEGRADERS OF ALK” (DANA-FARBER CANCER INSTITUTE, INC., priority 2020, published 2023).
Where two headings read alike, the source gives them in different places.

Experiments:
EML4-ALK = molecular target: T1, EML4-ALK (Homo sapiens, UniProt Q9UM73); test: EML4-ALK HiBit degradation assay in CRISPR-tagged H3122 cells (Nano-Glo HiBit Lytic Detection); type: cell-based
T1 construct: endogenous in cells; host or cells: H3122 (NSCLC), single-cell clone after CRISPR knock-in of HiBit; the other entry of the earlier key: EML4 (Q9HC35, Echinoderm microtubule-associated protein-like 4)
Experimental: (§1) NSCLC cell line H3122 was subjected to CRISPR to express EML4-ALK with HiBit-tag on its c-terminal. Single-cell clone was selected and expanded for the following assays that monitor endogenous EML4-ALK level in high throughput manner. Cells were seeded in 384-well white Tissue-culture plates at 3000 cells/well for 8 hours. […] HiBit signal was assessed using Nano-Glo® HiBit Lytic Detection System (Promega™). Degrader-treated was normalized by DMSO-treated controls and DC50 and Dmax were generated by GraphPad Prism® 8.0.
as §1, with “its c-terminus. A single-cell” for “its c-terminal. Single-cell”, “Degrader-treated cells were” for “Degrader-treated was”
as §1, with “its C-terminus. A single-cell” for “its c-terminal. Single-cell”, “Degrader-treated cells were” for “Degrader-treated was”

H3122 cells = test: CTG; type: cell-based; conditions: read-out: CTG IC50
[1] = NCI-H3122, Table 1, first Dmax column, H3122 EML4-ALK-HiBit, 16 hours, read-out: Degradation Dmax
[2] = NCI-H3122, Table 1, second Dmax column, H3122 EML4-ALK-HiBit, 16 hours, read-out: Degradation Dmax
[3] = NCI-H3122, Table 1, average Dmax, read-out: Degradation Avg. Dmax
[4] = Table 1, first DC50 column, H3122 EML4-ALK-HiBit, 16 hours, read-out: Degradation DC50
[5] = Table 1, second DC50 column, H3122 EML4-ALK-HiBit, 16 hours, read-out: Degradation DC50
[6] = Table 1, average DC50, read-out: Degradation Avg. DC50
[7] = Homo sapiens, NCI-H3122, Table 1
[8] = NCI-H3122, Table 2, first Dmax column, H3122 EML4-ALK-HiBit, 16 hours, read-out: Degradation Dmax
[9] = NCI-H3122, Table 2, second Dmax column, H3122 EML4-ALK-HiBit, 16 hours, read-out: Degradation Dmax
[10] = NCI-H3122, Table 2, average Dmax, read-out: Degradation Avg. Dmax
[11] = Table 2, first DC50 column, H3122 EML4-ALK-HiBit, 16 hours, read-out: Degradation DC50
[12] = Table 2, second DC50 column, H3122 EML4-ALK-HiBit, 16 hours, read-out: Degradation DC50
[13] = Table 2, average DC50, read-out: Degradation Avg. DC50
[14] = Homo sapiens, NCI-H3122, Table 2

T1 sequence (Q9UM73 with tags, fused parts or gaps): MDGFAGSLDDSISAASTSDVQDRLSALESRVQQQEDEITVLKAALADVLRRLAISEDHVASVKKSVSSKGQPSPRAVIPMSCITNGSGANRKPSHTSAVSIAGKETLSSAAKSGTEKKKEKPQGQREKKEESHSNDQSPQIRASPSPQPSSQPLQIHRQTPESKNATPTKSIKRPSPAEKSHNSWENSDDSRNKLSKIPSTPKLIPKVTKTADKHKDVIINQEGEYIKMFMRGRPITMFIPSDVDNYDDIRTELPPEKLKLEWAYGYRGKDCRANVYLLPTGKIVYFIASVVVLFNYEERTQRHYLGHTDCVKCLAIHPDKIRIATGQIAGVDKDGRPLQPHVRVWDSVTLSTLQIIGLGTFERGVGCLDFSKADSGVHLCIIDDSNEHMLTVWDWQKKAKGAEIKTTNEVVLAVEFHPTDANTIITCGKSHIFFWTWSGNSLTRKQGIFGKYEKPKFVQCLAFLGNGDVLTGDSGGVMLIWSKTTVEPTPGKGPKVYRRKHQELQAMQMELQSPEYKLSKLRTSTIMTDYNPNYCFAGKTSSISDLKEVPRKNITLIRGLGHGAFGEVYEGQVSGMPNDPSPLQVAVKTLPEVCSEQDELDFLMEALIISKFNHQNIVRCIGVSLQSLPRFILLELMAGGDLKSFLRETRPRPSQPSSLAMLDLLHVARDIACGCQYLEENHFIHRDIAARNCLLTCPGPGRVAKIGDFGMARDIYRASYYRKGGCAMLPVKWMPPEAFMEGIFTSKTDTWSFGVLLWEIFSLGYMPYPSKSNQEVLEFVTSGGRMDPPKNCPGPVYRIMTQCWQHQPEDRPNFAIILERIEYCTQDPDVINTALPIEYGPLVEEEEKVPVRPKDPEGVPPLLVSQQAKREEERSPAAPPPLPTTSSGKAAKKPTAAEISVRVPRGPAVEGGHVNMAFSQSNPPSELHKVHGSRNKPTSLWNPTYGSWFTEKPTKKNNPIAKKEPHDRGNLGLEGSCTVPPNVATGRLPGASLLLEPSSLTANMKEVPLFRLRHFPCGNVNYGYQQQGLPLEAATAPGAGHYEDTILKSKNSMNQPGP

SMILES | Dmax (EML4-ALK; [1]) [%] | Dmax (EML4-ALK; [2]) [%] | Dmax (EML4-ALK; [3]) [%] | DC50 (EML4-ALK; [4]) [µM] | DC50 (EML4-ALK; [5]) [µM] | DC50 (EML4-ALK; [6]) [µM] | IC50 (H3122 cells; [7]) [µM] | Dmax (EML4-ALK; [8]) [%] | Dmax (EML4-ALK; [9]) [%] | Dmax (EML4-ALK; [10]) [%] | DC50 (EML4-ALK; [11]) [µM] | DC50 (EML4-ALK; [12]) [µM] | DC50 (EML4-ALK; [13]) [µM] | IC50 (H3122 cells; [14]) [µM] | IC50 (H3122 cells; Table 1) [µM] | IC50 (H3122 cells; Table 2) [µM]
COc1cc(CCN(C)C(=O)CCCCCNC(=O)COc2cccc3c2C(=O)N(C2CCC(=O)NC2=O)C3=O)c(C)cc1Nc1ncc(Cl)c(Nc2ccccc2S(=O)(=O)C(C)C)n1 (stereo not drawn) [compound 6, N-(4-((5-chloro-4-((2-(isopropylsulfonyl)phenyl)amino)pyrimidin-2-yl)amino)-5-methoxy-2-methylphenethyl)-6-(2-((2-(2,6-dioxopiperidin-3-yl)-1,3-dioxoisoindolin-4-yl)oxy)acetamido)-N-methylhexanamide] | 34 | 30.4 | 32.2 | 0.124 | 0.266 | 0.195 | 0.0116 | – | – | – | – | – | – | – | – | –
COc1cc(CCNCCCC(=O)N[C@H](C(=O)N2C[C@H](O)C[C@H]2C(=O)N[C@@H](C)c2ccc(-c3scnc3C)cc2)C(C)(C)C)c(C)cc1Nc1ncc(Cl)c(Nc2ccccc2S(=O)(=O)C(C)C)n1 [Compound 43] | 38.1 | – | 38.1 | 1.23 | – | 1.23 | 0.289 | – | – | – | – | – | – | – | – | –
COc1cc(CCN(C)C(=O)CCOCCC(=O)N[C@H](C(=O)N2C[C@H](O)C[C@H]2C(=O)N[C@@H](C)c2ccc(-c3scnc3C)cc2)C(C)(C)C)c(C)cc1Nc1ncc(Cl)c(Nc2ccccc2P(C)(C)=O)n1 [compound 71, (2S,4R)-1-((S)-2-(3-(3-((4-((5-chloro-4-((2-(dimethylphosphoryl)phenyl)amino)pyrimidin-2-yl)amino)-5-methoxy-2-methylphenethyl)(methyl)amino)-3-oxopropoxy)propanamido)-3,3-dimethylbutanoyl)-4-hydroxy-N-((S)-1-(4-(4-methylthiazol-5-yl)phenyl)ethyl)pyrrolidine-2-carboxamide] | – | – | – | – | – | – | – | 50.9 | 43.7 | 47.3 | 0.543 | 0.15 | 0.35 | 0.222 | – | –
COc1cc(CCN(C)C(=O)CCCCCCCC(=O)N[C@H](C(=O)N2C[C@H](O)C[C@H]2C(=O)N[C@@H](C)c2ccc(-c3scnc3C)cc2)C(C)(C)C)c(C)cc1Nc1ncc(Cl)c(Nc2ccccc2S(=O)(=O)C(C)C)n1 [compound 41, N^1-(4-((5-chloro-4-((2-(isopropylsulfonyl)phenyl)amino)pyrimidin-2-yl)amino)-5-methoxy-2-methylphenethyl)-N^9-((S)-1-((2S,4R)-4-hydroxy-2-(((S)-1-(4-(4-methylthiazol-5-yl)phenyl)ethyl)carbamoyl)pyrrolidin-1-yl)-3,3-dimethyl-1-oxobutan-2-yl)-N^1-methylnonanediamide] | 56.2 | – | 56.2 | 0.626 | – | 0.626 | 0.176 | – | – | – | – | – | – | – | – | –
COc1cc(CCNCCCCCOc2cc(-c3scnc3C)ccc2[C@H](C)NC(=O)[C@@H]2C[C@@H](O)CN2C(=O)[C@@H](NC(C)=O)C(C)(C)C)c(C)cc1Nc1ncc(Cl)c(Nc2ccccc2S(=O)(=O)C(C)C)n1 [Compound 53] | 64.9 | 68.2 | 66.5 | 0.113 | 0.072 | 0.093 | 0.121 | – | – | – | – | – | – | – | – | –
COc1cc(CCN(C)C(=O)CCCNC(=O)COc2cccc3c2C(=O)N(C2CCC(=O)NC2=O)C3=O)c(C)cc1Nc1ncc(Cl)c(Nc2ccccc2P(C)(C)=O)n1 (stereo not drawn) [Compound 57] | – | – | – | – | – | – | – | – | – | – | 9.34 | – | 9.34 | – | – | > 10
COc1cc(CCN(C)C(=O)CCCCCCCCC(=O)N[C@H](C(=O)N2C[C@H](O)C[C@H]2C(=O)N[C@@H](C)c2ccc(-c3scnc3C)cc2)C(C)(C)C)c(C)cc1Nc1ncc(Cl)c(Nc2ccccc2S(=O)(=O)C(C)C)n1 [compound 42, N^1-(4-((5-chloro-4-((2-(isopropylsulfonyl)phenyl)amino)pyrimidin-2-yl)amino)-5-methoxy-2-methylphenethyl)-N^10-((S)-1-((2S,4R)-4-hydroxy-2-(((S)-1-(4-(4-methylthiazol-5-yl)phenyl)ethyl)carbamoyl)pyrrolidin-1-yl)-3,3-dimethyl-1-oxobutan-2-yl)-N^1-methyldecanediamide] | 47.3 | – | 47.3 | 0.777 | – | 0.777 | 1.31 | – | – | – | – | – | – | – | – | –

The remaining lines, values ahead:

Dmax (EML4-ALK; [1]) [%] | Dmax (EML4-ALK; [2]) [%] | Dmax (EML4-ALK; [3]) [%] | DC50 (EML4-ALK; [4]) [µM] | DC50 (EML4-ALK; [5]) [µM] | DC50 (EML4-ALK; [6]) [µM] | IC50 (H3122 cells; [7]) [µM] | Dmax (EML4-ALK; [8]) [%] | Dmax (EML4-ALK; [9]) [%] | Dmax (EML4-ALK; [10]) [%] | DC50 (EML4-ALK; [11]) [µM] | DC50 (EML4-ALK; [12]) [µM] | DC50 (EML4-ALK; [13]) [µM] | IC50 (H3122 cells; [14]) [µM] | IC50 (H3122 cells; Table 1) [µM] | IC50 (H3122 cells; Table 2) [µM] | SMILES
54.8 | 49.4 | 52.1 | 0.214 | 0.107 | 0.16 | 0.0677 | – | – | – | – | – | – | – | – | – | COc1cc(CCN(C)C(=O)CCOCCC(=O)N[C@H](C(=O)N2C[C@H](O)C[C@H]2C(=O)N[C@@H](C)c2ccc(-c3scnc3C)cc2)C(C)(C)C)c(C)cc1Nc1ncc(Cl)c(Nc2ccccc2S(=O)(=O)C(C)C)n1 [compound 52, (2S,4R)-1-((S)-2-(3-(3-((4-((5-chloro-4-((2-(isopropylsulfonyl)phenyl)amino)pyrimidin-2-yl)amino)-5-methoxy-2-methylphenethyl)(methyl)amino)-3-oxopropoxy)propanamido)-3,3-dimethylbutanoyl)-4-hydroxy-N-((S)-1-(4-(4-methylthiazol-5-yl)phenyl)ethyl)pyrrolidine-2-carboxamide]
– | – | – | 0.163 | 0.226 | 0.195 | – | – | – | – | – | – | – | – | 0.36 | – | CC[C@@H](NC(=O)[C@@H]1C[C@H](NC(=O)CCCCCCCC(=O)N(C)CCc2cc(OC)c(Nc3ncc(Cl)c(Nc4ccccc4S(=O)(=O)C(C)C)n3)cc2C)CN1C(=O)[C@@H](NC(=O)[C@H](C)NC)C(C)(C)C)c1ccccc1 [Compound 56]
– | – | – | – | – | – | – | 29.5 | 39.6 | 34.5 | 9.04 | 8.37 | 8.7 | > 10 | – | – | COc1cc(CCN(C)C(=O)CCCC#Cc2cccc3c2C(=O)N(C2CCC(=O)NC2=O)C3=O)c(C)cc1Nc1ncc(Cl)c(Nc2ccccc2P(C)(C)=O)n1 (stereo not drawn) [Compound 61]
51 | – | 51 | 0.39 | – | 0.39 | 0.106 | – | – | – | – | – | – | – | – | – | COc1cc(CCNCCCCCCCC(=O)N[C@H](C(=O)N2C[C@H](O)C[C@H]2C(=O)N[C@@H](C)c2ccc(-c3scnc3C)cc2)C(C)(C)C)c(C)cc1Nc1ncc(Cl)c(Nc2ccccc2S(=O)(=O)C(C)C)n1 [Compound 45]
– | – | – | – | – | – | – | 26.2 | – | 26.2 | 2.56 | – | 2.56 | 1.1 | – | – | COc1cc(CCN(C)C(=O)CCCCCNc2cccc3c2C(=O)N(C2CCC(=O)NC2=O)C3=O)c(C)cc1Nc1ncc(Cl)c(Nc2ccccc2P(C)(C)=O)n1 (stereo not drawn) [Compound 65]
77.2 | 108 | 92.8 | 0.961 | 0.611 | 0.786 | 0.388 | – | – | – | – | – | – | – | – | – | COc1cc(CCNCCCCCSC(C)(C)[C@H](NC(C)=O)C(=O)N2C[C@H](O)C[C@H]2C(=O)N[C@@H](C)c2ccc(-c3scnc3C)cc2)c(C)cc1Nc1ncc(Cl)c(Nc2ccccc2S(=O)(=O)C(C)C)n1 [Compound 48]
58 | 34.5 | 51.3 | 1.39 | 0.206 | 0.801 | 0.316 | – | – | – | – | – | – | – | – | – | COc1cc(CCNCCOCCOCCC(=O)N[C@H](C(=O)N2C[C@H](O)CC2C(=O)N[C@@H](C)c2ccc(-c3scnc3C)cc2)C(C)(C)C)c(C)cc1Nc1ncc(Cl)c(Nc2ccccc2S(=O)(=O)C(C)C)n1 (stereo partly drawn) [Compound 46]
81.9 | 95.6 | 88.7 | 1.1 | 0.347 | 0.723 | 0.285 | – | – | – | – | – | – | – | – | – | COc1cc(CCNCCOCCOCCOCCC(=O)N[C@H](C(=O)N2C[C@H](O)C[C@H]2C(=O)N[C@@H](C)c2ccc(-c3scnc3C)cc2)C(C)(C)C)c(C)cc1Nc1ncc(Cl)c(Nc2ccccc2S(=O)(=O)C(C)C)n1 [Compound 47]
25.8 | – | 23.8 | 0.032 | – | 0.032 | 0.0448 | – | – | – | – | – | – | – | – | – | COc1cc(CCN(C)C(=O)CCCNc2cccc3c2C(=O)N(C2CCC(=O)NC2=O)C3=O)c(C)cc1Nc1ncc(Cl)c(Nc2ccccc2S(=O)(=O)C(C)C)n1 (stereo not drawn) [compound 1]
